Consider five compounds from paper PMC12223841, “Compounds Isolated from Paepalanthus spp. (Eriocaulaceae) and Their Evaluation in Antimicrobial, Cytotoxic, and Antiviral Assays” (ACS Omega, 2025).

≈ marks a conversion by molar mass, not a printed value.

One data set can be described thus: in vitro. The conditions noted are these: hamster.
For data set [1], the system named is Staphylococcus aureus (NEWP0023). Briefly: Broth microdilution with TTC, S. aureus. Type of data set: cell-based. To be noted: 24 h, 36 °C. For orientation: Dilution methods test growth across graded concentrations, often in twofold steps.
Data set [2] has as its system Escherichia coli (NEWP0022). Put plainly: Broth microdilution with TTC, E. coli. To be noted: 24 h, 36 °C. Type of data set: cell-based.
Data set [3] concerns MCF-7 (human breast cancer). Put plainly: MTT growth-inhibition assay, MCF-7. Format: cell-based. To be noted: 72 h; for inhibition at 50 µM: MCF7, 50 μM, read-out: Inhibition percentage (growth), MCF-7. In general terms: Tetrazolium assays rely on reduction of a dye to a coloured formazan, in cell work by metabolically active cells.
Data set [4] has as its system HCT-116 (human colon cancer). Put plainly: MTT growth-inhibition assay, HCT-116. Format: cell-based. The conditions noted are these: 72 h; for inhibition at 50 µM: read-out: Inhibition percentage (growth), HCT 116.

Protocol for in vitro: The compounds were further diluted in a culture medium to a final concentration of 10 μM.
The proliferation assay was performed based on WST-8, using the Cell Counting kit-8. After incubation with the compounds, 10 μL per well of CCK8 solution was added, and the plates were incubated in a CO2 incubator at 37 °C for 2 h. Then, the absorbance was measured at 450 nm in the SpectraMax 384 Plate Reader. Cells in 1% DMSO were used as a negative control for the assay.

In general, viability refers to a read-out of living cells in per cent, often relative to untreated cells. A lower viability goes with a greater loss of cells. A word on the MIC: it is the least concentration at which growth counts as inhibited. Higher therefore signals weaker potency. The term inhibition denotes how much of the control response was suppressed. In the case of `COc1c(O)cc2oc(-c3ccc(O)cc3)c(OC3OC(COC(=O)C=Cc4ccc(O)cc4)C(O)C(O)C3O)c(=O)c2c1O` [Compound 4, 6-Methoxykaempferol-3-O-β-D-6″-(p-coumaroyl)-glycopyranoside], the viability at 10 µM in the data set “in vitro” amounted to 100%. Besides, the MIC in data set [1] is no less than 500 µg/mL; in data set [2] it was no less than 250 µg/mL. Moreover, the inhibition at 50 µM in data set [3] came to 3.45%; in data set [4], 11.5%.
Turning to `CNC(C)C1CCC(N)C(OC2C(N)CC(N)C(OC3OCC(C)(O)C(NC)C3O)C2O)O1` (stereo not drawn) [gentamicin, reference compound], the minimum inhibitory concentration (MIC) in data set [1] and in data set [2] was no more than 0.5 µg/mL each time.
For the compound `COc1c(O)cc2oc(-c3ccc(O)cc3)c(O)c(=O)c2c1O` [Compound 1, 6-Methoxykaempferol], the minimal inhibitory concentration (MIC) was 250 µg/mL (≈ 790 µM) in data set [1] and no less than 250 µg/mL in data set [2]. Moreover, the results for the inhibition at 50 µM in data set [3] and in data set [4] were 19.2% and 29.2%, respectively.
With `COc1c(O)cc2oc(-c3ccc(O)cc3)c(O[C@@H]3O[C@H](CO)[C@@H](O)[C@H](O)[C@H]3O)c(=O)c2c1O` [Compound 5, 6-Methoxykaempferol-3-O-β-glucopyranoside], the minimal inhibitory concentration (MIC) in data set [1] was no less than 500 µg/mL; in data set [2], no less than 250 µg/mL.
A word on the IC50: it is the midpoint of a concentration-inhibition curve. Low values mean greater potency, high ones weaker potency. On to `COc1cccc2c1C(=O)c1c(O)c3c(c(O)c1C2=O)C[C@@](O)(C(=O)CO)C[C@@H]3O[C@H]1C[C@H](N)[C@H](O)[C@H](C)O1` [Doxorubicin, doxorubicin, reference compound], for which the concentration for half-maximal inhibition (IC50) in data set [3] (MCF7, positive control, 95% confidence interval in brackets) was found to be 1160 nM; in data set [4] (positive control, 95% confidence interval in brackets), 180 nM.
